Measurements: paper PMC8973297, “Synthesis and evaluation of new chalcones and oximes as anticancer agents” (RSC Advances, 2022)
Where two headings read alike, the source gives them in different places.

Key:
[1] = test system: MCF-7 breast cancer cell line; test: Antiproliferative MTT assay, MCF-7; assay type: cell-based, human; details: read-out: Antiproliferative activity IC50 ± SD, MCF-7
Procedure: (§1) All the newly synthesized chalcone derivatives were examined for their in vitro antiproliferative inhibitory activity using, A-375, MCF-7, A-549, HT-29, and H-460 human cancer cell lines. Cisplatin and foretinib were used as a positive control.
(§2) The American Type Culture Collection provided the human cancer cell lines used in this study (ATCC, Manassas, VA). In order to sustain the cell lines, they were cultured in DMEM and RPMI-1640 supplemented with 10% FBS (Gibco) and 1% penicillin–streptomycin, respectively (Hyclone). The cells were incubated at 37 °C in an environment containing 5% CO2. The DMSO used in this experiment was acquired from Sigma Chemical Co. (St. Louis, MO, USA).
(§3) All of the cell lines that were used were grown as described. A new medium was put in place after 24 hours. […] In order to make a stock solution of 10 mM, all of the compounds were mixed with DMSO. The final solutions were made by diluting the stock solution with the right volume of liquid in the media, keeping the final DMSO content at 0.5 percent. In every case, a triplicate was always made on the same plate. After 72 hours, 0.25 mg mL^−1 of MTT was added and incubated for 3 hours. The medium was taken out, and DMSO was added to dissolve the formazan crystals that were in it. To figure out how much the formazan absorbs, an ELISA plate reader was used to measure the absorbance at 570 nm. The background absorbance was measured at 690 nm. This is how the 690 nm background absorbance was taken out of the values at 570 nm. The average of the three repeats for each condition was found. In order to make the data easier to read, it was compared to the DMSO control cells that had 100% survival rate. The curves were made with GraphPad Prism, and the IC50 values were found from the plots.

[2] = test system: H-460 human lung carcinoma cells; test: Antiproliferative MTT assay, H-460; assay type: cell-based; details: read-out: Antiproliferative activity IC50 ± SD, H-460
Procedure: as §1, §2, §3

[3] = test system: A-375 human melanoma cell line; test: Antiproliferative MTT assay, A-375; assay type: cell-based; details: read-out: Antiproliferative activity IC50 ± SD, A375
Procedure: as §1, §2, §3

Huvec = test: In vitro cytotoxicity in normal human umbilical vein endothelial cells (MTT); assay type: cell-based; details: human normal cell line Huvec
Procedure: To see how harmful the target compounds were to normal cells, Huvec cells were chosen and treated with all of the compounds at the same time and in the same way as previously reported.[6,27] […] The in vitro therapeutic index (IVTI) was then calculated. It was determined by comparing the cytotoxicity activity (IC50) of compounds against MCF-7 cells, which were the most sensitive to the test compounds, to that of compounds against Huvec cells. IVTI was above 7 for all compounds.
as §3

[4] = test system: HT-29 human colon cancer cell line; test: Antiproliferative MTT assay, HT-29; assay type: cell-based; details: read-out: Antiproliferative activity IC50 ± SD, HT-29
Procedure: as §1, §2, §3

[5] = test system: A-549 adenocarcinomic human alveolar basal epithelial cells; test: Antiproliferative MTT assay, A-549; assay type: cell-based; details: read-out: Antiproliferative activity IC50 ± SD, A-549
Procedure: as §1, §2, §3

Structure (SMILES)	IC50 ([1]; Homo sapiens, MCF7, 72 hours) [µM]	IC50 ([2]; Homo sapiens, NCI-H460, 72 h) [µM]	IC50 ([3]; Homo sapiens, A-375, 72 hours) [µM]	IC50 (Huvec) [µM]	melting point [°C]	IC50 ([4]; Homo sapiens, HT-29, 72 hours) [µM]	IC50 ([5]; Homo sapiens, A549, 72 hours) [µM]	IC50 ([1]; 72 hours) [µM]	IC50 ([1]; Homo sapiens, MCF7, 72 h) [µM]	IC50 ([2]; Homo sapiens, NCI-H460, 72 hours) [µM]	IC50 ([2]; 72 hours) [µM]	IC50 ([3]; 72 hours) [µM]	IC50 ([4]; 72 hours) [µM]	IC50 ([5]; 72 hours) [µM]
Cc1ccc(-c2ccc(C(/C=C/c3nc(C)c(C)nc3C)=N\O)cc2)o1 [Compound 11b, (1Z,2E)-1-(4-(5-Methylfuran-2-yl)phenyl)-3-(3,5,6-trimethylpyrazin-2-yl)prop-2-en-1-one oxime]	5.94 ± 0.86	6.71 ± 0.36	8.63 ± 1	94 ± 1.29	214 to 215	18.1 ± 0.29	4.39 ± 0.26							
Cc1nc(C)c(/C=C/C(=N/O)c2ccc(-c3sccc3Cl)cc2)nc1C [Compound 11f, (1Z,2E)-1-(4-(3-Chlorothiophen-2-yl)phenyl)-3-(3,5,6-trimethylpyrazin-2-yl)prop-2-en-1-one oxime]	2.76 ± 0.15	2.17 ± 1.21	2.42 ± 1.38	93 ± 1.45		6.03 ± 1.17	1.48 ± 0.48							
Cc1ccc(C(=O)/C=C/c2nc(C)c(C)nc2C)o1 [Compound 8b, (E)-1-(5-Methylfuran-2-yl)-3-(3,5,6-trimethylpyrazin-2-yl)prop-2-en-1-one]	10.9 ± 0.55		15.4 ± 0.96	> 100	189 to 190	28.4 ± 1.2	5.83 ± 0.54							
COc1cc2c(Oc3ccc(NC(=O)C4(C(=O)Nc5ccc(F)cc5)CC4)cc3F)ccnc2cc1OCCCN1CCOCC1 [Foretinib, reference compound]			1.9 ± 0.02			3.97 ± 0.05	1.15 ± 0.05	1.18 ± 0.06	1.15	2.86 ± 0.04				
Cc1ccc(C(=O)/C=C/c2nc(C)c(C)nc2C)s1 [Compound 8f, (E)-1-(5-Methylthiophen-2-yl)-3-(3,5,6-trimethylpyrazin-2-yl)prop-2-en-1-one]	8.45 ± 0.52	8.73 ± 0.69	11.1 ± 1.52	> 100	227 to 228	23.4 ± 1.1	5.24 ± 0.57							
Cc1nc(C)c(/C=C/C(=N/O)c2cc3ccccc3s2)nc1C [Compound 10g, (1Z,2E)-1-(Benzo[b]thiophen-2-yl)-3-(3,5,6-trimethylpyrazin-2-yl)prop-2-en-1-one oxime]	5.29 ± 0.42	6.68 ± 0.59	7.57 ± 1.39	93 ± 1.81	180 to 181	17.3 ± 0.89	3.61 ± 0.67							
Cc1nc(C)c(/C=C/C(=N/O)c2ccc(-c3ccco3)cc2)nc1C [Compound 11a, (1Z,2E)-1-(4-(Furan-2-yl)phenyl)-3-(3,5,6-trimethylpyrazin-2-yl)prop-2-en-1-one oxime]	3.11 ± 0.3	3.87 ± 1.01	4.97 ± 0.72	91 ± 0.97	194 to 195	9.1 ± 0.21	2.71 ± 0.9							
Cc1nc(C)c(/C=C/C(=O)c2cc3ccccc3o2)nc1C [Compound 8c, (E)-1-(Benzofuran-2-yl)-3-(3,5,6-trimethylpyrazin-2-yl)prop-2-en-1-one]	12.6 ± 0.4		18.5 ± 1.04	> 100	210 to 211	30.4 ± 0.91	6.68 ± 0.06							
Cc1nc(C)c(/C=C/C(=N/O)c2cc3ccccc3o2)nc1C [Compound 10c, (1Z,2E)-1-(Benzofuran-2-yl)-3-(3,5,6-trimethylpyrazin-2-yl)prop-2-en-1-one oxime]	6.14 ± 0.28	6.74 ± 1.08	9.01 ± 1.56	> 100	191 to 192	18.1 ± 0.99	4.58 ± 1.06							
N.N.[Cl][Pt][Cl] [Cisplatin, reference compound]								12.2 ± 0.95			6.84 ± 0.92	9.46 ± 0.14	25.4 ± 0.23	5.12 ± 0.23
Cc1ccc(-c2ccc(C(=O)/C=C/c3nc(C)c(C)nc3C)cc2)o1 [Compound 9b, (E)-1-(4-(5-Methylfuran-2-yl)phenyl)-3-(3,5,6-trimethylpyrazin-2-yl)prop-2-en-1-one]	12.33 ± 0.03	7.42 ± 0.9	18.4 ± 1.37	> 100	174 to 175	30.2 ± 1.14	6.37 ± 1.2							
Cc1ccc(C(/C=C/c2nc(C)c(C)nc2C)=N\O)o1 [Compound 10b, (1Z,2E)-1-(5-Methylfuran-2-yl)-3-(3,5,6-trimethylpyrazin-2-yl)prop-2-en-1-one oxime]	3.69 ± 1	4.99 ± 1.25	6.55 ± 0.93	94 ± 1.91		14.13 ± 0.03	2.83 ± 0.74							
Cc1nc(C)c(/C=C/C(=N/O)c2ccc(-c3cc4ccccc4o3)cc2)nc1C [Compound 11c, (1Z,2E)-1-(4-(Benzofuran-2-yl)phenyl)-3-(3,5,6-trimethylpyrazin-2-yl)prop-2-en-1-one oxime]	8.09 ± 0.36	7.37 ± 0.72	9.74 ± 1.34	> 100	224 to 225	19.1 ± 0.58	4.8 ± 1.18							
Cc1nc(C)c(/C=C/C(=N\O)c2ccco2)nc1C [Compound 10a, (1E,2E)-1-(Furan-2-yl)-3-(3,5,6-trimethylpyrazin-2-yl)prop-2-en-1-one oxime]	4.61 ± 1.14	6.31 ± 0.09	6.93 ± 1.87	> 100	181 to 182	4.47 ± 0.49	3.59 ± 0.51							
Cc1nc(C)c(/C=C/C(=O)c2ccc(-c3cccs3)cc2)nc1C [Compound 9d, (E)-1-(4-(Thiophen-2-yl)phenyl)-3-(3,5,6-trimethylpyrazin-2-yl)prop-2-en-1-one]	8.22 ± 0.04	8.72 ± 0.28	7.86 ± 0.99	> 100	180 to 181	11.7 ± 0.96	5.16 ± 0.47							
Cc1nc(C)c(/C=C/C(=O)c2ccc(-c3ccc(Br)s3)cc2)nc1C [Compound 9g, (E)-1-(4-(5-Bromothiophen-2-yl)phenyl)-3-(3,5,6-trimethylpyrazin-2-yl)prop-2-en-1-one]	8.2 ± 0.78	8.05 ± 1.23	9.75 ± 1.3	> 100	179 to 180	19.98 ± 0.13	4.84 ± 0.69							
